The test has as its system Ba/F3-TPOR/mutCALR type 1 engineered cells. Put plainly: Cell proliferation with antibody and/or ruxolitinib, mutCALR Type 1. Format: cell-based. The following applies: ruxolitinib alone at 50 nM; 72 hours; dotted line of FIG. 10 (Type 1 and Type 2 panels); read-out: inhibition of the level of oncogenic cell proliferation. The protocol:
To test the ability of anti-mutCALR antibodies to potentiate the therapeutic response of the JAK1/2 inhibitor ruxolitinib, Ba/F3 cells were engineered to express MPL+mutCALR Type 1 (52 bp deletion) or MPL+mutCALR Type 2 (5 bp insertion) as described above. Cells were plated at 5,000 cells per well in RPMI 1640+2% FBS, treated with 50 nM of ruxolitinib and/or anti-mutCALR antibodies. Cells were incubated for 72 hours followed by assessment of cell viability using the CellTiter-Glo Luminescent Cell Viability Assay (Promega, Madison, Wis.) and Top Count (Perkin Elmer, Boston, Mass.) or Pherastar (BMG Labtech, Ortenberg, Germany) for luminescence quantification. Ruxolitinib used at a concentration of 50 nM inhibited the level of oncogenic cell proliferation by approximately 20% (dotted line).

SMILES strings stand for the structures.

In the case of `N#CC[C@H](C1CCCC1)n1cc(-c2ncnc3[nH]ccc23)cn1` [Ruxolitinib, ruxolitinib, reference compound], the inhibition at 0.05 µM is ~20%.

The values are drawn from patent publication US20230272055A1, “ANTI-MUTANT CALRETICULIN (CALR) ANTIBODIES AND USES THEREOF” (Incyte Corporation, priority 2021, published 2023).
